These results are taken from patent publication US12473304B2, “Heterocyclic PAD4 inhibitors” (BRISTOL-MYERS SQUIBB COMPANY, priority 2020, dated 2025).

Sequence of human PAD4 (hPAD4) (Q9UM07 whole entry): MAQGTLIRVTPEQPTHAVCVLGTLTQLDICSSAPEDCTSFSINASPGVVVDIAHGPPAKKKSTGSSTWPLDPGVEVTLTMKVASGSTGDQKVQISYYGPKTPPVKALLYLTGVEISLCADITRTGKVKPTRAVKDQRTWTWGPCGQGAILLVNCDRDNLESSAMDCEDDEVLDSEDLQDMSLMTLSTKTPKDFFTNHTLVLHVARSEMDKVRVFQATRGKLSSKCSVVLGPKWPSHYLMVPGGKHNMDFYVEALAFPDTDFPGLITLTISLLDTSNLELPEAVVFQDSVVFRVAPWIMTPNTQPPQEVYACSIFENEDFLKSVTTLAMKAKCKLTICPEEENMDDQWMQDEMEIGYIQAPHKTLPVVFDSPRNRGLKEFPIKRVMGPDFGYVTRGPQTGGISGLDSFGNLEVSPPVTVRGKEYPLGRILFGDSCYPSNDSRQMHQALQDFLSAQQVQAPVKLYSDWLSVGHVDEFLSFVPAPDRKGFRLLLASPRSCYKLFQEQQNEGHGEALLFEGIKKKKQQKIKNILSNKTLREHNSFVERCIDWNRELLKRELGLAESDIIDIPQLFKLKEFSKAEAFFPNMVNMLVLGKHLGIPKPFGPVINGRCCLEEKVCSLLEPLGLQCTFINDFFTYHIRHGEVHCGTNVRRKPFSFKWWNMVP

For the experiment, the target named is human PAD4 (hPAD4) (Homo sapiens (Human), UniProt Q9UM07). Put plainly: RFMS Human PAD4 Functional Assay 1. It counts as biochemical. Conditions: RFMS assay 1; 5 nM hPAD4, 250 μM BAEE substrate, 50 μM calcium, 37° C. In short, it runs like this:
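Recombinant hPAD4 (5 nM) was preincubated with compound (top 50 μM, 0.5% DMSO) for 30 min at 37 °C, then reacted with 250 μM BAEE for 90 min at 37 °C in pH 7.5 HEPES buffer with 50 μM calcium and 5 μM TPEN. Product was derivatized with phenyl glyoxal and quantified by RapidFire MS.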
For the compound `Cc1c(-c2cc3ccc(Cl)nc3n2CC2CC2)nn2cc(C(=O)N3CCC[C@@H](N)C3)cc(Cl)c12` [Example 291, (3R)-1-{4-Chloro-2-[6-chloro-1-(cyclopropylmethyl)-1H-pyrrolo[2,3-b]pyridin-2-yl]-3-methylpyrazolo[1,5-a]pyridine-6-carbonyl}piperidin-3-amine], the half-maximal inhibitory concentration (IC50) stood at 5890 nM. In the case of `Cc1c(-c2cc3ccc(-c4ccc5[nH]ncc5c4)nc3n2CC2CC2)nn2cc(C(=O)N3CCC[C@@H](N)C3)cc(Cl)c12` [Example 292, (3R)-1-{4-chloro-2-[1-(Cyclopropylmethyl)-6-(1H-indazol-5-yl)-1H-pyrrolo[2,3-b]pyridin-2-yl]-3-methylpyrazolo[1,5-a]pyridine-6-carbonyl}piperidin-3-amine], the concentration for half-maximal inhibition (IC50) came to 2350 nM. As to `Cc1c(-c2cc3ccc(-c4ccc(C(N)=O)cc4Cl)cc3n2CC2CC2)nn2cc(C(=O)N3CC4CCC3[C@@H]4N)cc(F)c12` (stereo partly drawn) [Example 294, 4-(2-{6-[(7R)-7-Amino-2-azabicyclo[2.2.1]heptane-2-carbonyl]-4-fluoro-3-methylpyrazolo[1,5-a]pyridin-2-yl}-1-(cyclopropylmethyl)-1H-indol-6-yl)-3-chlorobenzamide], the IC50 amounted to 200 nM.

`Cc1c(-c2cc3ccc(-c4ccn5c(C)nnc5c4)cc3n2CC2CC2)nn2cc(C(=O)N3CC4CCC3[C@@H]4N)cc(F)c12` (stereo partly drawn) [Example 295, (7R)-2-{2-[1-(Cyclopropylmethyl)-6-{3-methyl-[1,2,4]triazolo[4,3-a]pyridin-7-yl}-1H-indol-2-yl]-4-fluoro-3-methylpyrazolo[1,5-a]pyridine-6-carbonyl}-2-azabicyclo[2.2.1]heptan-7-amine]: the IC50 came out at 20 nM. As for `COC1CN(c2ccc3cc(-c4nn5cc(C(=O)N6CC7CCC6[C@@H]7N)cc(F)c5c4C)n(CC4CC4)c3c2)C1` (stereo partly drawn) [Example 296, (7R)-2-{2-[1-(Cyclopropylmethyl)-6-(3-methoxyazetidin-1-yl)-1H-indol-2-yl]-4-fluoro-3-methylpyrazolo[1,5-a]pyridine-6-carbonyl}-2-azabicyclo[2.2.1]heptan-7-amine], the concentration for half-maximal inhibition (IC50) turned out to be 850 nM. Then `Cc1c(-c2cc3ccc(-c4cccc5[nH]nc(F)c45)nc3n2CC2CC2)nn2cc(C(=O)N3CC4CCC3[C@@H]4N)ccc12` (stereo partly drawn) [Example 297, (7R)-2-{2-[1-(Cyclopropylmethyl)-6-(3-fluoro-1H-indazol-4-yl)-1H-pyrrolo[2,3-b]pyridin-2-yl]-3-methylpyrazolo[1,5-a]pyridine-6-carbonyl}-2-azabicyclo[2.2.1]heptan-7-amine], with 190 nM; and `Cc1c(-c2cc3ccc(-c4ccc5cn[nH]c5c4)nc3n2CC2CC2)nn2cc(C(=O)N3CC4CCC3[C@@H]4N)ccc12` (stereo partly drawn) [Example 298, (7R)-2-{2-[1-(Cyclopropylmethyl)-6-(1H-indazol-6-yl)-1H-pyrrolo[2,3-b]pyridin-2-yl]-3-methylpyrazolo[1,5-a]pyridine-6-carbonyl}-2-azabicyclo[2.2.1]heptan-7-amine], with 210 nM; and `Cc1c(-c2cc3ccc(-c4cccc5[nH]ncc45)nc3n2CC2CC2)nn2cc(C(=O)N3CC4CCC3[C@@H]4N)ccc12` (stereo partly drawn) [Example 299, (7R)-2-{2-[1-(Cyclopropylmethyl)-6-(1H-indazol-4-yl)-1H-pyrrolo[2,3-b]pyridin-2-yl]-3-methylpyrazolo[1,5-a]pyridine-6-carbonyl}-2-azabicyclo[2.2.1]heptan-7-amine], with 20 nM.

For the compound `Cc1c(-c2cc3ccc(-c4ccc5[nH]ncc5c4)nc3n2CC2CC2)nn2cc(C(=O)N3CC4CCC3[C@@H]4N)ccc12` (stereo partly drawn) [Example 300, (7R)-2-{2-[1-(Cyclopropylmethyl)-6-(1H-indazol-5-yl)-1H-pyrrolo[2,3-b]pyridin-2-yl]-3-methylpyrazolo[1,5-a]pyridine-6-carbonyl}-2-azabicyclo[2.2.1]heptan-7-amine], the IC50 was 100 nM. With `Cc1c(O)cccc1-c1ccc2cc(-c3nn4cc(C(=O)N5CC6CCC5[C@@H]6N)ccc4c3C)n(CC3CC3)c2n1` (stereo partly drawn) [Example 301, 3-(2-{6-[(7R)-7-Amino-2-azabicyclo[2.2.1]heptane-2-carbonyl]-3-methylpyrazolo[1,5-a]pyridin-2-yl}-1-(cyclopropylmethyl)-1H-pyrrolo[2,3-b]pyridin-6-yl)-2-methylphenol] the figure was 30 nM; with `Cc1c(-c2cc3ccc(-c4ccccc4N4CCNC4=O)nc3n2CC2CC2)nn2cc(C(=O)N3CC4CCC3[C@@H]4N)ccc12` (stereo partly drawn) [Example 302, 1-[2-(2-{6-[(7R)-7-Amino-2-azabicyclo[2.2.1]heptane-2-carbonyl]-3-methylpyrazolo[1,5-a]pyridin-2-yl}-1-(cyclopropylmethyl)-1H-pyrrolo[2,3-b]pyridin-6-yl)phenyl]imidazolidin-2-one], 120 nM; with `COc1cc(-c2ccc3cc(-c4nn5cc(C(=O)N6CC7CCC6[C@@H]7N)ccc5c4C)n(CC4CC4)c3n2)ccc1C(N)=O` (stereo partly drawn) [Example 303, 4-(2-{6-[(7R)-7-Amino-2-azabicyclo[2.2.1]heptane-2-carbonyl]-3-methylpyrazolo[1,5-a]pyridin-2-yl}-1-(cyclopropylmethyl)-1H-pyrrolo[2,3-b]pyridin-6-yl)-2-methoxybenzamide], 240 nM. Then `Cc1c(-c2cc3ccc(-c4ccc(N5CCCC5=O)cc4)nc3n2CC2CC2)nn2cc(C(=O)N3CC4CCC3[C@@H]4N)ccc12` (stereo partly drawn) [Example 304, 1-[4-(2-{6-[(7R)-7-Amino-2-azabicyclo[2.2.1]heptane-2-carbonyl]-3-methylpyrazolo[1,5-a]pyridin-2-yl}-1-(cyclopropylmethyl)-1H-pyrrolo[2,3-b]pyridin-6-yl)phenyl]pyrrolidin-2-one], with 10 nM; and `Cc1cc(C(N)=O)c(F)cc1-c1ccc2cc(-c3nn4cc(C(=O)N5CC6CCC5[C@@H]6N)ccc4c3C)n(CC3CC3)c2n1` (stereo partly drawn) [Example 305, 4-(2-{6-[(7R)-7-Amino-2-azabicyclo[2.2.1]heptane-2-carbonyl]-3-methylpyrazolo[1,5-a]pyridin-2-yl}-1-(cyclopropylmethyl)-1H-pyrrolo[2,3-b]pyridin-6-yl)-2-fluoro-5-methylbenzamide], with 40 nM. With `Cc1c(-c2cc3ccc(-c4ccc5cn[nH]c5c4F)nc3n2CC2CC2)nn2cc(C(=O)N3CC4CCC3[C@@H]4N)ccc12` (stereo partly drawn) [Example 306, (7R)-2-{2-[1-(Cyclopropylmethyl)-6-(7-fluoro-1H-indazol-6-yl)-1H-pyrrolo[2,3-b]pyridin-2-yl]-3-methylpyrazolo[1,5-a]pyridine-6-carbonyl}-2-azabicyclo[2.2.1]heptan-7-amine] the figure was 30 nM.

Take `CNC(=O)c1ccc(-c2ccc3cc(-c4nn5cc(C(=O)N6CC7CCC6[C@@H]7N)ccc5c4C)n(CC4CC4)c3n2)cn1` (stereo partly drawn) [Example 307, 5-(2-{6-[(7R)-7-Amino-2-azabicyclo[2.2.1]heptane-2-carbonyl]-3-methylpyrazolo[1,5-a]pyridin-2-yl}-1-(cyclopropylmethyl)-1H-pyrrolo[2,3-b]pyridin-6-yl)-N-methylpyridine-2-carboxamide]: the IC50 was found to be 70 nM. Then `COC(=O)Nc1ccc(-c2ccc3cc(-c4nn5cc(C(=O)N6CC7CCC6[C@@H]7N)ccc5c4C)n(CC4CC4)c3n2)cn1` (stereo partly drawn) [Example 308, Methyl N-[5-(2-{6-[(7R)-7-amino-2-azabicyclo[2.2.1]heptane-2-carbonyl]-3-methylpyrazolo[1,5-a]pyridin-2-yl}-1-(cyclopropylmethyl)-1H-pyrrolo[2,3-b]pyridin-6-yl)pyridin-2-yl]carbamate], with 50 nM.

Broadly, the IC50 is the concentration needed to halve the response being measured.
